Reference: patent publication US20080069785A1, “PEST-CONTROL COMPOSITIONS, AND METHODS AND PRODUCTS UTILIZING SAME” (priority 2004, published 2008)
Several values for one entry are separate records, joined by “and”; a condition that tells them apart may be missing. Equal values may be shown once.

Legend:
[1] = tested on: Eastern subterranean termite, Reticulitermes flavipes; test: Termite direct application test (Example 20); format: in vivo; details: 1 uL onto the back or thorax
Description: In this test, in addition to water as a negative control, a positive control, in the form of the commercially available pesticide Raid® in also included. The method in this test simply involved pippetting 1 uL of the formulation onto the back or thorax of the Eastern subterranean termite, Reticulitermes flavipes, and recording the time to death. This test was performed on Mar. 13, 2007. The formulations used in the test were: (a) Raid®, a commercially available pesticide, (b) Undecanone, (c) BioUD™10, (d) BioUD™5, (e) Soy Methyl Ester (SME), and (f) water as a negative control.

[2] = tested on: adult German cockroaches, Blattella germanica; test: Direct application toxicity test, comparison of insecticides including BioUD 10 (Table 23); format: in vivo; details: 10 μL; adult female (F); individual cockroaches
Description: Ten μL of BioUD™10, pure Undecanone, or Raid® were separately applied to the backs (thorax and wings) of adult German cockroaches, Blattella germanica. Insects were separately placed into FLUON®-treated diet cups (Vol.=30 mL, lower diam.=3 cm, height=4 cm) to prevent escape of treated specimens.

CCCCCCCCCC(C)=O [Undecanone, 2-Undecanone]
Time-to-death (sec), mean [1]: 171.5 s | Time-to-death ([1]; individual termite): 157 s and 389 s and 68 s and 174 s and 146 s | Time-to-death [2]: 47 s and 46 s and 1200 s and 57 s
